Results taken from patent publication US6878733B1, “Formulations for pharmaceutical agents ionizable as free acids or free bases” (Sugen, Inc., priority 1999, dated 2005).
Converted amounts (≈) assume the structure as drawn. Each block holds one compound with its values, some of them ahead of it.

Key:
[1] = Solubility of in situ salts versus free acid; format: physicochemical
[2] = pH solubility profile; format: physicochemical; settings: 0.1 M phosphate buffer, thermodynamic from solid
Description: The solution was filtered, appropriate dilutions made and the concentration of the compound in the supernatant was analyzed by a reverse phase HPLC method.

[3] = tested on: SF767T human glioma; experiment: SC tumor xenograft growth, SF767T; format: in vivo, BALB/c nu/nu mice; settings: IP in DMSO, 75 mg/kg/d daily
Description: (§1) Medium was changed every two to three days.
(§2) In most experiments, compound was administered daily.
(§3) Tumor growth was measured using venier calipers. Tumor volumes were calculated as the produce of length x width x height.

[4] = tested on: PDGF receptor; experiment: Inhibition of signal transduction via PDGF receptor
[5] = tested on: C6 cells; experiment: Efficacy on established C6 SC tumors; format: in vivo, athymic mice; settings: IP 75 mg/kg/day, onset delayed until measurable tumors were present (Day 7)
[6] = tested on: A431 human epidermal; experiment: SC tumor xenograft growth, A431; format: in vivo, BALB/c nu/nu mice; settings: IP in DMSO, 100 mg/kg/d daily
Description: as §2, §3

[7] = physchem; format: physicochemical
[8] = tested on: SF763T human glioma; experiment: SC tumor xenograft growth, SF763T; format: in vivo, BALB/c nu/nu mice; settings: IP in DMSO, 75 mg/kg/d daily
Description: as §1, §2, §3

[9] = target: Flk-1/KDR (Homo sapiens, UniProt P35968); experiment: Inhibition of signal transduction via Flk-1/KDR
[10] = tested on: FGF receptor; experiment: Inhibition of signal transduction via FGF receptor
[11] = tested on: A375 human melanoma; experiment: SC tumor xenograft growth, A375; format: in vivo; settings: IP in DMSO, 75 mg/kg/d dosed 3x/week
Description: as §2, §3

[12] = tested on: EpH4-VEGF1 murine epithelial; experiment: SC tumor xenograft growth, EpH4-VEGF1; format: in vivo; settings: IP in DMSO, 75 mg/kg/d daily
Description: as §2, §3

[13] = tested on: C6 rat glioma; experiment: SC tumor xenograft growth, C6, treatment from one day post-implantation; format: in vivo, BALB/c nu/nu mice; settings: IP
Description: as §2, §3

[14] = Oral bioavailability of formulations in beagle dogs; format: in vivo; settings: at higher doses in fasted conditions
Description: The formulation described below enhance the oral bioaviability of COMPOUND IV in beagle dogs, a preclinical absorption model.
Both formulations contain 50 mg/gm of Pluroanic F-68. The formulation at 50 mg/gm of COMPOUND IV contains 900 mgs of sesame oil and the one that contains 250 mg/gm of COMPOUND IV contains 700 mgs of sesame oil.
AUC refers to the area under the curve of the plasma concentration time curve and represents oral bioavilability (BA). Higher AUC indicates higher BA.

Chain of Flk-1/KDR (P35968 20-1356): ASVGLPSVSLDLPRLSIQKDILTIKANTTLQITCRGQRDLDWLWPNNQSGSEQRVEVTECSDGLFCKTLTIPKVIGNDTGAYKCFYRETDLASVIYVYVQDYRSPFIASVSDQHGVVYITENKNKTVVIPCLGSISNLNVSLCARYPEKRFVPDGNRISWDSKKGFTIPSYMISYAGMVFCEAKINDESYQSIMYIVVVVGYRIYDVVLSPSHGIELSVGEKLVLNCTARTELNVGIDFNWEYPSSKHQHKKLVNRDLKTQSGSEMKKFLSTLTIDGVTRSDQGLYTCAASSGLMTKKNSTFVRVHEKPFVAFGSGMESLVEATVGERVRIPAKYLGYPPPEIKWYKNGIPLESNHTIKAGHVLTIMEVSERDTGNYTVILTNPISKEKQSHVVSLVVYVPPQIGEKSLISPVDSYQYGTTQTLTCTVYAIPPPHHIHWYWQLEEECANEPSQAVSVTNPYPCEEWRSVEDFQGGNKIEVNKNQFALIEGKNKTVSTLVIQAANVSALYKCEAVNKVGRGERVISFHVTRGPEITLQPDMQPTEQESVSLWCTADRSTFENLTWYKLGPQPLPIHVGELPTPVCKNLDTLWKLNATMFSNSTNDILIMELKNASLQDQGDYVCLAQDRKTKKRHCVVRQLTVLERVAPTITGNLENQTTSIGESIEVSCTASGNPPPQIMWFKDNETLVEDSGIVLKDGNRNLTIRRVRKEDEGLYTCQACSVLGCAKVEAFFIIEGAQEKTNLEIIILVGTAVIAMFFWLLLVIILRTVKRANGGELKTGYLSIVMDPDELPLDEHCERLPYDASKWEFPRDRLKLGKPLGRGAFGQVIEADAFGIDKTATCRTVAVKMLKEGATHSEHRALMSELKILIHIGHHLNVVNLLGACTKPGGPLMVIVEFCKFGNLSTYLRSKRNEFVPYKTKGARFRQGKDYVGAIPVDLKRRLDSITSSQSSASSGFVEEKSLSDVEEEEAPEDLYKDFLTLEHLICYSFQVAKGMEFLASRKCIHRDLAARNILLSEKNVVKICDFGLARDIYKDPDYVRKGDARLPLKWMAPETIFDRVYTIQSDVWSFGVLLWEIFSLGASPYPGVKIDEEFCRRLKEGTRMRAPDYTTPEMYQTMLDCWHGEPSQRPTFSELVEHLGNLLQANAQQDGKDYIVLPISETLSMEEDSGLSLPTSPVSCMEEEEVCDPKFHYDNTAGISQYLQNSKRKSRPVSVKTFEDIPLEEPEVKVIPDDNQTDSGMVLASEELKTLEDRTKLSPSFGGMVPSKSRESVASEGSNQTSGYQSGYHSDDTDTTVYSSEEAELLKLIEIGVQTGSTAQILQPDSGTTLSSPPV

Compound: Cc1[nH]c(C=C2C(=O)Nc3ccccc32)c(C)c1CCC(=O)O [free acid, 3-[2,4-dimethyl-5-(2-oxo-1,2-dihydro-indol-3-ylidenemethyl)-1H-pyrrol-3-yl]-propionic acid]
solubility ([1]; water, aqueous, sodium salt compared to free acid, read-out: solubility): < 100 µg/mL | solubility ([1]; water, free acid, for comparison with the sodium salt, read-out: aqueous solubility): ~30 µg/mL

Compound: Cc1[nH]c(C=C2C(=O)Nc3ccccc32)c(C)c1CCC(=O)O [3-[2,4-Dimethyl-5-(2-oxo-1,2-dihydro-indol-3-ylidenemethyl)-1H-pyrrol-3-yl]-propionic acid]
solubility ([2]; pH 6, aqueous buffer, pH of buffer 6.0 (0.1 M phosphate), average pH at equilibrium 6.06, two lots): 2.4 µg/mL (≈ 7.73 µM) | solubility ([2]; pH 6.5, aqueous buffer, pH of buffer 6.5 (0.1 M phosphate), average pH at equilibrium 6.52): 4 µg/mL (≈ 12.9 µM) | solubility ([2]; pH 7, aqueous buffer, pH of buffer 7.0 (0.1 M phosphate), average pH at equilibrium 6.96): 9 µg/mL (≈ 29 µM) | solubility ([2]; pH 7.4, aqueous buffer, pH of buffer 7.4 (0.1 M phosphate), average pH at equilibrium 7.39): 19 µg/mL (≈ 61.2 µM) | % Mortality [3]: 12.5% | inhibitor of signal transduction via PDGF receptor [4]: potent inhibitor | efficacy on established tumors [5]: efficacious | % Mortality [6]: 12.5% | logP [7]: 3.85 | pKa [7]: 5.02 | logD ([7]; pH 7.4): 1.5 | % Mortality [8]: 12.5% | inhibitor of signal transduction via Flk-1/KDR [9]: potent inhibitor | inhibitor of signal transduction via FGF receptor [10]: potent inhibitor | % Mortality [11]: 0% | % Mortality [12]: 0% | % Inhibition (at day) ([13]; 25 mg/kg Daily × 5, day 18, ns (P > 0.05)): 1 (18) % | tumor growth inhibition ([13]; 100 mg/kg twice weekly or three times weekly, statistically significant): approximately 40%

Compound: Cc1[nH]c(C=C2C(=O)Nc3ccccc32)c(C)c1CCC(=O)O [Meglumine, 3-[2,4-dimethyl-5-(2-oxo-1,2-dihydro-indol-3-ylidenemethyl)-1H-pyrrol-3-yl]-propionic acid]
solubility ([1]; aqueous solution of the salt formed in situ, salt of 3-[2,4-dimethyl-5-(2-oxo-1,2-dihydro-indol-3-ylidenemethyl)-1H-pyrrol-3-yl]-propionic acid, in situ salt formation, pH in the column beside, read-out: Solubility): 7900 µg/mL

oral bioavailability [14]: low bioavailability
Compound: Cc1[nH]c(/C=C2\C(=O)Nc3ccccc32)c(C)c1CCC(=O)O [COMPOUND IV, 3-[2,4-dimethyl-5-(2-oxo-1,2-dihydro-indol-3-ylidenemethyl)-1H-pyrrol-3-yl]-propionic acid]
